# Assay results from ChEMBL document CHEMBL4354794, “Potential Anticancer Agents Characterized from Selected Tropical Plants” (J Nat Prod, 2019).
# Legend:
# [1] = system: HepG2; assay: Antiproliferative activity against human HepG2 assessed as reduction in cell viability incubated for 48 hrs by AlamarBlue assay; format: functional, cell-based; settings: HepG2, 48 h
# [2] = system: A549; assay: Antiproliferative activity against human A549 cells assessed as reduction in cell viability after 48 hrs by MTT assay; format: functional, cell-based; settings: A549, 48 h
# [3] = system: BGC-823; assay: Antiproliferative activity against human BGC823 cells assessed as reduction in cell viability after 48 hrs by MTT assay; format: functional, cell-based; settings: BGC-823, 48 h
# [4] = system: MCF7; assay: Antiproliferative activity against human MCF7 assessed as reduction in cell viability incubated for 48 hrs by AlamarBlue assay; format: functional, cell-based; settings: MCF7, 48 h
# [5] = Antiproliferative activity against human KKU100 cells assessed as reduction in cell viability after 72 hrs by SRB assay; format: functional, cell-based; settings: KKU100, 72 h
# [6] = target: Trypsin (Homo sapiens, UniProt P07477+P07478+P35030); assay: Inhibition of trypsin (unknown origin) using Z-FR-MCA as substrate by spectrofluorimetric method; format: protein assay
# [7] = target: Cruzipain (Trypanosoma cruzi, UniProt P25779); assay: Inhibition of Trypanosoma cruzi cruzain (unknown origin) using Z-FR-MCA as substrate by spectrofluorimetric method
# Cruzipain, sequence (P25779 whole entry): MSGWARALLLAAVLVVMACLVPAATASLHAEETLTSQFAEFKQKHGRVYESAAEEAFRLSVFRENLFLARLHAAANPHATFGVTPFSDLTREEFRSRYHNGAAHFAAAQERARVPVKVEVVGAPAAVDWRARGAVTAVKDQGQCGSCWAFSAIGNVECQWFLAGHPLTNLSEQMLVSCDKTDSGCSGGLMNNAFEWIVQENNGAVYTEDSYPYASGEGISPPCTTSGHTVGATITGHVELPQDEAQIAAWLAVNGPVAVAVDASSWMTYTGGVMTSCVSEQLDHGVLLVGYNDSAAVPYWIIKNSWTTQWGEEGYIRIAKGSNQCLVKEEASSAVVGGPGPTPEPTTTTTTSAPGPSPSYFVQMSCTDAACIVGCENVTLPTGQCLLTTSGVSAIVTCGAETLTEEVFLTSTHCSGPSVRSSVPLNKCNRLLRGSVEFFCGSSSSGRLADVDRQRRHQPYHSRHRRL
# [8] = target: T1, Papain (Carica papaya, UniProt P00784); assay: Inhibition of Papaya papain using Z-FR-MCA as substrate by spectrofluorimetric method
# T1 sequence (P00784 whole entry): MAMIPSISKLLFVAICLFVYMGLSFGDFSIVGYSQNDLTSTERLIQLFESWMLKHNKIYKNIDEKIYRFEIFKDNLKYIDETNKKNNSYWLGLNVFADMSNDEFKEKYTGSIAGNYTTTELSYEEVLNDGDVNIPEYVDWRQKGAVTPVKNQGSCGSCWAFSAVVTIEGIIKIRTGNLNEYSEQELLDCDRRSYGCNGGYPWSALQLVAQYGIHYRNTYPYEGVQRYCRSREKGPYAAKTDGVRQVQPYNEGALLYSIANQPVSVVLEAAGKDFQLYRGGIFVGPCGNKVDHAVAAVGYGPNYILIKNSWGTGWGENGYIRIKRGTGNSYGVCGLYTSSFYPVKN
# [9] = system: HT-29; assay: Antiproliferative activity against human HT-29 cells assessed as reduction in cell viability; format: functional, cell-based
# [10] = system: HT-29; assay: Antiproliferative activity against human HT-29 cells assessed as reduction in cell viability after 3 days by SRB assay; format: functional, cell-based; settings: HT-29, 72 h
# [11] = system: A549; assay: Antiproliferative activity against human A549 cells assessed as reduction in cell viability after 72 hrs by MTT assay; format: functional, cell-based; settings: A549, 72 h
# [12] = system: NCI-H1650; assay: Antiproliferative activity against human NCI-H1650 cells assessed as reduction in cell viability after 72 hrs by CellTiter-Glo assay; format: functional, cell-based; settings: NCI-H1650, 72 h
# [13] = system: HT-3; assay: Antiproliferative activity against human HT3 cells assessed as reduction in cell viability after 6 days by MTT assay; format: functional, cell-based; settings: HT-3, 144 h
# [14] = system: P388; assay: Antiproliferative activity against mouse P388 cells assessed as reduction in cell viability; format: functional, cell-based
# [15] = system: SNB-19; assay: Antiproliferative activity against human SNB19 cells; format: functional, cell-based
# [16] = system: HL-60; assay: Antiproliferative activity against human HL60 cells assessed as reduction in cell viability after 3 days by trypan blue dye based hemocytometer counting method; format: functional; settings: HL-60, 72 h
smiles,measurement,setting,value
C=C1C(=O)O[C@@H]2C3O[C@]3(C)CC/C=C(\C)CC[C@@H]12 (stereo partly specified),IC50,[1],> 10000 nM
COCOc1cc2c(c(O)c1Br)C(=O)C1=CC3CC4C(C)(C)OC(C/C=C(\C)CO)(C3=O)C14O2 (stereo unspecified),IC50,[2],560 nM
same,IC50,[3],2200 nM
C/C1=C\CC[C@@]2(C)O[C@H]2[C@H]2OC(=O)[C@@H](CNC(Cc3ccc(N(CCCl)CCCl)cc3)C(=O)O)[C@@H]2CC1 (stereo partly specified),IC50,[1],260 nM
same,IC50,[4],1800 nM
CC(C)=CCc1c(O)cc(O)c2c1O[C@]13C(=C[C@H]4C[C@@H]1C(C)(C)O[C@@]3(CC=C(C)C)C4=O)C2=O,IC50,[5],3500 nM
COc1ccc(C2Oc3cc(OC)cc(O)c3C(=O)C2c2c(OC)cc(O)c3c(=O)cc(-c4ccc(OC)c(OC)c4)oc23)cc1 (racemic),IC50,[6],1600 nM
same,IC50,[7],235000 nM
same,IC50,[8],15400 nM
C=C1C(=O)O[C@@H]2[C@@H](O)[C@@H](C)C3=CC(=O)[C@@](C)(C[C@H](OC(=O)/C(C)=C\C)[C@@H]12)O3,IC50,[9],6600 nM
C=C(C)C(=O)O[C@H]1C[C@@]2(C)OC(=CC2=O)[C@H](C)C(CC(=C)C(=O)O[C@H]2C[C@@]3(C)OC(=CC3=O)/C(C)=C\[C@H]3OC(=O)C(=C)[C@H]23)[C@H]2OC(=O)C(=C)[C@H]12 (stereo partly specified),IC50,[9],150 nM
C=C(C)C(=O)O[C@H]1C[C@@]2(C)OC(=CC2=O)[C@H](C)[C@H](O)[C@H]2OC(=O)C(=C)[C@@H]21,IC50,[9],1900 nM
CC(C)=CCc1c2c(c(O)c3c1O[C@]14C(=C[C@H]5C[C@@H]1C(C)(C)O[C@@]4(C/C=C(/C)C(=O)O)C5=O)C3=O)C=CC(C)(C)O2,IC50,[10],360 nM
CC(C)=CCC12OC(C)(C)C3CC(C=C4C(=O)c5c(O)cc(O)cc5OC431)C2=O (stereo unspecified),IC50,[2],4100 nM
same,IC50,[3],5900 nM
COC[C@H]1O[C@@H](Oc2c3c(c(-c4ccc5c(c4)OCO5)c4cc(OC)c(OC)cc24)C(=O)OC3)[C@H](OC)[C@@H](OC)[C@H]1OC,IC50,[11],10 nM
COCOc1cc(O)c2c(c1)OC13C(=CC4CC1C(C)(C)OC3(CC=C(C)C)C4=O)C2=O (stereo unspecified),IC50,[2],3300 nM
same,IC50,[3],3200 nM
CC(C)=CCc1c2c(c(O)c3c1O[C@]14C(=C[C@H]5C[C@@H]1C(C)(C)O[C@@]4(C/C=C(\C)C=O)C5=O)C3=O)C=CC(C)(C)O2,IC50,[5],3300 nM
CCCCCCCCCCCCCCCC(=O)OC[C@H]1O[C@@H](O[C@H]2CC[C@@]3(C)C(=CC[C@H]4[C@@H]5CC[C@H]([C@H](C)CC[C@@H](CC)C(C)C)[C@@]5(C)CC[C@@H]43)C2)[C@H](O)[C@@H](O)[C@@H]1O,IC50,[10],> 10000 nM
CC(C)=CCC/C(C)=C/Cc1c(O)c(CC=C(C)C)c2c(c1O)C(=O)C1=C[C@@H]3C[C@H]4C(C)(C)O[C@@](CC=C(C)C)(C3=O)[C@@]14O2,IC50,[12],1100 nM
COc1cc2c(OC)c3c(c(-c4ccc5c(c4)OCO5)c2cc1OC)C(=O)OC3 [JUSTICIDIN A],IC50,[13],1.8 ng/mL
C=C1C(=O)O[C@@H]2/C=C(/C)C3=CC(=O)[C@@](C)(C[C@H](OC(=O)C(C)C)[C@@H]12)O3,IC50,[9],580 nM
CC(C)=CCC[C@@]1(C)C=Cc2c(O)c3c(c(CCC(C)(C)O)c2O1)O[C@]12C(=C[C@H]4C[C@@H]1C(C)(C)O[C@@]2(C/C=C(/C)C(=O)O)C4=O)C3=O,IC50,[12],950 nM
CC(C)=CCc1c(-c2cc(O)c(O)cc2O)oc2c3c(cc(O)c2c1=O)OC(C)(C)C=C3 [ARTONIN E],IC50,[14],140 nM
O=C1c2c(O)cc(O)cc2OC(c2ccc(O)cc2)C1c1c(O)cc(O)c2c(=O)cc(-c3ccc(O)c(O)c3)oc12 (racemic),IC50,[6],3800 nM
same,IC50,[7],9600 nM
same,IC50,[8],10500 nM
CO[C@H]1[C@H]2C(=O)c3c(O)c4c(c(CC=C(C)C)c3O[C@@]23[C@@H]2C[C@H]1C(=O)[C@]3(C/C=C(/C)C(=O)O)OC2(C)C)OC(C)(C)C=C4,IC50,[10],1900 nM
COCOc1cc(O)c2c(c1)OC13C(=CC4CC1C(C)(C)OC3(CC1OC1(C)C)C4=O)C2=O (stereo unspecified),IC50,[2],2700 nM
same,IC50,[3],310 nM
CC(C)=CCc1c(O)c(CC=C(C)C)c2c(c1O)C(=O)C1=C[C@H]3C[C@@H]4C(C)(C)O[C@@](C/C=C(/C)C(=O)O)(C3=O)[C@@]14O2,IC50,[10],3200 nM
C=C1C(=O)O[C@@H]2/C=C(/C)C3=CC(=O)[C@@](C)(C[C@H](OC(=O)/C(C)=C\C)[C@@H]12)O3,IC50,[9],1400 nM
same,IC50,[15],13800 nM
COc1ccc(-c2c3c(c(O)c4cc5c(cc24)OCO5)COC3=O)cc1OC,IC50,[13],> 10000 ng/mL
COCOc1cc(O)c2c(c1)OC13C(=CC4CC1C(C)(C)OC3(C/C=C(\C)C=O)C4=O)C2=O (stereo unspecified),IC50,[2],1000 nM
same,IC50,[3],5000 nM
C=C(C)C(O)Cc1c2c(c(O)c3c1O[C@]14C(=C[C@H]5C[C@@H]1C(C)(C)O[C@@]4(C/C=C(\C)C(=O)O)C5=O)C3=O)C=CC(C)(C)O2 (stereo partly specified),IC50,[10],2600 nM
CC(C)=CCC/C(C)=C/Cc1c(O)c(CC=C(C)C)c2c(c1O)C(=O)C1=C[C@@H]3C[C@H]4C(C)(C)O[C@@](C/C=C(\C)C(=O)O)(C3=O)[C@@]14O2,IC50,[12],1400 nM
COCOc1cc(O)c2c(c1)OC13C(=CC4CC1C(C)(C)OC3(C/C=C(\C)CO)C4=O)C2=O (stereo unspecified),IC50,[2],2500 nM
same,IC50,[3],3800 nM
C/C1=C\CC[C@@]2(C)O[C@H]2[C@H]2OC(=O)[C@@H](CNc3ccn(C4OC(CO)[C@H](O)[C@@H]4O)c(=O)n3)[C@@H]2CC1 (stereo partly specified),IC50,[1],240 nM
same,IC50,[4],5200 nM
C=C1C(=O)O[C@@H]2C[C@@H](C)C3=CC(=O)[C@@](C)(C[C@H](OC(=O)/C(C)=C\C)[C@@H]12)O3,IC50,[9],560 nM
COCOc1cc(O)c2c(c1)OC13C(=CC4CC1C(C)(C)OC3(C[C@H](O)C(C)(C)O)C4=O)C2=O (stereo partly specified),IC50,[2],1700 nM
same,IC50,[3],860 nM
C=C(C)C(=O)O[C@H]1C[C@@]2(C)OC(=CC2=O)C(=C)[C@H](O)[C@H]2OC(=O)C(=C)[C@@H]21,IC50,[9],280 nM
CC(C)=CCC[C@@]1(C)C=Cc2c(O)c3c(c(C/C=C(\C)CO)c2O1)O[C@]12C(=C[C@H]4C[C@@H]1C(C)(C)O[C@@]2(C/C=C(/C)C(=O)O)C4=O)C3=O,IC50,[12],620 nM
CCCC(=O)Oc1ccc(C2Oc3cc(OC(=O)CCC)cc(O)c3C(=O)C2c2c(OC(=O)CCC)cc(O)c3c(=O)cc(-c4ccc(OC(=O)CCC)c(OC(=O)CCC)c4)oc23)cc1 (racemic),IC50,[6],19800 nM
same,IC50,[7],8100 nM
same,IC50,[8],15700 nM
C=C1C(=O)O[C@@H]2C[C@@H](C)[C@H](OC)CC(=O)[C@](C)(O)C[C@H](OC(=O)/C(C)=C\C)[C@@H]12,IC50,[9],1000 nM
CC(=O)Oc1ccc(C2Oc3cc(OC(C)=O)cc(O)c3C(=O)C2c2c(OC(C)=O)cc(O)c3c(=O)cc(-c4ccc(OC(C)=O)c(OC(C)=O)c4)oc23)cc1 (racemic),IC50,[6],21100 nM
same,IC50,[7],537000 nM
same,IC50,[8],600 nM
CC(C)=CCC/C(C)=C/Cc1c(O)c(CC=C(C)C)c2c(c1O)C(=O)C1=C[C@@H]3C[C@H]4C(C)(C)O[C@@](C/C=C(\C)C=O)(C3=O)[C@@]14O2,IC50,[12],970 nM
COc1cc2c(O[C@@H]3OC[C@H](O)[C@H](O)[C@H]3OC)c3c(c(-c4ccc5c(c4)OCO5)c2cc1OC)C(=O)OC3,IC50,[10],19 nM
C=C1C(=O)O[C@@H]2C/C(C)=C\CC(=O)[C@](C)(OC(C)=O)C[C@H](OC(=O)/C(C)=C\C)[C@@H]12,IC50,[9],4000 nM
COC[C@H]1O[C@@H](Oc2c3c(c(-c4ccc5c(c4)OCO5)c4cc(OC)c(OC)cc24)C(=O)OC3)[C@H](OC)[C@@H](OC)[C@@H]1OC,IC50,[11],50 nM
C=C1C(=O)O[C@@H]2C[C@@H](C)[C@H](OC)CC(=O)[C@](C)(OC(C)=O)C[C@H](OC(=O)/C(C)=C\C)[C@@H]12,IC50,[9],1400 nM
CO[C@@H]1[C@@H]2C[C@H]3C(C)(C)O[C@@](C/C=C(/C)C(=O)O)(C2=O)[C@]32Oc3c(CC=C(C)C)c4c(c(O)c3C(=O)[C@H]12)C=C[C@@](C)(CCC=C(C)C)O4,IC50,[16],830 nM
COCOc1cc(O)c2c(c1)OC13C(=CC4CC1C(C)(C)OC3(C/C=C(\C)CBr)C4=O)C2=O (stereo unspecified),IC50,[2],960 nM
same,IC50,[3],1600 nM
"CC(C)=CCc1c2c(c(O)c3c1O[C@]14C(=C[C@H]5C[C@@H]1C(C)(C)O[C@@]4(C/C=C(/C)C(=O)O)C5=O)C3=O)CC(O)C(C)(C)O2 (single isomer, unassigned; (-))",IC50,[10],2900 nM
C=C(C)[C@@]1(O)O[C@H]2C[C@@]3(C)OC(=CC3=O)/C(C)=C\[C@H]3OC(=O)[C@@]1(C)[C@@H]23,IC50,[9],> 10000 nM
same,IC50,[15],100000 nM
